# Test results: patent publication US8865626B2, “Synergistically active herbicidal agents that are compatible with cultivated plants and contain herbicides from the group of benzoylpyrazoles” (Bayer Cropscience AG, priority 2006, dated 2014)
# Experiments:
# Format in all cases: in vivo
# STEME = assay: Herbicidal post-emergence action against STEME; conditions: visual rating 3 to 4 weeks after treatment
# Procedure: (§1) Seeds of monocotyledonous and dicotyledonous weed and crop plants are placed into sandy loam in wood fiber pots or in plastic pots, covered with soil and cultivated in a greenhouse, including during the vegetation period outdoors outside of the greenhouse, under good growth conditions. 2-3 weeks after sowing, the test plants are treated at the one- to three-leaf stage. The test compounds, formulated as wettable powders (WP) or liquid (EC) are, in various dosages with a water application rate of 300 I/ha (converted), with added wetting agent (0.2 to 0.3%), sprayed onto the plants and the surface of the soil. 3 to 4 weeks after the treatment of the test plants, the effect of the preparations is rated visually in comparison to untreated controls (herbicidal effect in percent (%): 100% effect=plants have died, 0% effect=like control plants).
# (§2) If it is additionally to be tested as to whether safeners can improve the plant compatibility of test substances in the case of crop plants, the following options are used for applying the safener: • seeds of the crop plants are, before sowing, dressed with the safener substance (the amount of safener is stated in percent, based on the weight of the seed) • before the application of the test substances, the crop plants are sprayed with the safener at a certain application rate per hectare (usually 1 day before the application of the test substances) • the safener is applied together with the test substance as a tank mix (the amount of safener is stated in g/ha or as a ratio, based on the herbicide).
# (§3) By comparing the effect of the test substances on crop plants without or with safener treatment, it is possible to assess the effect of the safener substance.
# LAMPU = assay: Herbicidal post-emergence action against LAMPU; conditions: visual rating 3 to 4 weeks after treatment
# Procedure: as §1, §3
# AVEFA = assay: Herbicidal post-emergence action against AVEFA; conditions: visual rating 3 to 4 weeks after treatment
# Procedure: as §1, §3
# MATIN = assay: Herbicidal post-emergence action against MATIN; conditions: visual rating 3 to 4 weeks after treatment
# Procedure: as §1, §2, §3
# summer wheat = assay: Post-emergence damage to crop plant (safener test)
# Procedure: as §1, with “plants). […]” for “plants).”
# VERHE = assay: Herbicidal post-emergence action against VERHE; conditions: visual rating 3 to 4 weeks after treatment
# Procedure: as §1, §3
smiles,measurement,setting,value
Nc1cc(Cl)nc(C(=O)O)c1Cl [aminopyralid],Activity against STEME,STEME; dosage 150 g of a.i./ha,65%
CCOC(=O)C(Cl)Cc1cc(-n2nc(C)n(C(F)F)c2=O)c(F)cc1Cl (centres unmarked) [carfentrazone-ethyl],Activity against LAMPU,LAMPU; dosage 25 g of a.i./ha,10%
COCc1cnc(C2=NC(C)(C(C)C)C(=O)N2)c(C(=O)O)c1.N (centres unmarked) [imazamox-ammonium],Activity against AVEFA,AVEFA; dosage 25 g of a.i./ha,60%
CCOC(=O)C1=NN(c2ccc(Cl)cc2Cl)C(C)(C(=O)OCC)C1 (centres unmarked) [mefenpyr-diethyl],Activity against STEME,STEME; dosage 9.4 g of a.i./ha,0%
same,Activity against MATIN,MATIN; dosage 9.4 g of a.i./ha,0%
COC(=O)c1ccc(CNS(C)(=O)=O)cc1S(=O)(=O)NC(=O)Nc1nc(OC)cc(OC)n1 [mesosulfuron-methyl],Damage to summer wheat,summer wheat; dosage 7.5 g of a.i./ha,15%
same,Activity against MATIN,MATIN; dosage 7.5 g of a.i./ha,50%
Cc1nn(C)c(O)c1C(=O)c1ccc(C(F)(F)F)cc1S(C)(=O)=O [pyrasulfotole],Activity against LAMPU,LAMPU; dosage 12.5 g of a.i./ha,80%
same,Damage to summer wheat,summer wheat; dosage 12.5 g of a.i./ha,20%
same,Activity against VERHE,VERHE; dosage 12.5 g of a.i./ha,40%
same,Activity against STEME,STEME; dosage 12.5 g of a.i./ha,60%
same,Activity against MATIN,MATIN; dosage 12.5 g of a.i./ha,70%
same,Activity against AVEFA,AVEFA; dosage 12.5 g of a.i./ha,40%
COc1cc(OC)n2nc(NS(=O)(=O)c3c(C(F)(F)F)ccnc3OC)nc2n1 [pyroxsulam],Activity against VERHE,VERHE; dosage 5 g of a.i./ha,80%
